Experimental findings from ChEMBL document CHEMBL4020846 (J Med Chem, 2018) are described below.

Molecules are shown by their SMILES. The source made the active and inactive calls. The rule behind the calls is not given here.

Data set [1] in a line: Cytotoxicity against HEK-Blue cells over-expressing NOD2 assessed as residual metabolic activity at 20 uM after 18 hrs by CellTiter 96 aqueous one solution cell proliferation assay relative to control. As to conditions: human, read-out: Activity. The data set is classed as ADME, cell-based.
In data set [2] the target is T1, Nucleotide-binding oligomerization domain-containing protein 2 (Homo sapiens, UniProt Q9HC29). The experiment in a line: Agonist activity at human NOD2 expressed in HEK-Blue cells assessed as induction of NF-kB transcriptional activity at 2 uM after 18 hrs by SEAP reporter gene assay relative to control. The data set is classed as cell-based.
The target in data set [3] is T1, Nucleotide-binding oligomerization domain-containing protein 2. The experiment in a line: Agonist activity at human NOD2 expressed in HEK-Blue cells assessed as induction of NF-kB transcriptional activity after 18 hrs by SEAP reporter gene assay. The data set is classed as cell-based.
In data set [4] the target is T2, Nucleotide-binding oligomerization domain-containing protein 1 (Homo sapiens) (UniProt Q9Y239).
T2 sequence (whole entry): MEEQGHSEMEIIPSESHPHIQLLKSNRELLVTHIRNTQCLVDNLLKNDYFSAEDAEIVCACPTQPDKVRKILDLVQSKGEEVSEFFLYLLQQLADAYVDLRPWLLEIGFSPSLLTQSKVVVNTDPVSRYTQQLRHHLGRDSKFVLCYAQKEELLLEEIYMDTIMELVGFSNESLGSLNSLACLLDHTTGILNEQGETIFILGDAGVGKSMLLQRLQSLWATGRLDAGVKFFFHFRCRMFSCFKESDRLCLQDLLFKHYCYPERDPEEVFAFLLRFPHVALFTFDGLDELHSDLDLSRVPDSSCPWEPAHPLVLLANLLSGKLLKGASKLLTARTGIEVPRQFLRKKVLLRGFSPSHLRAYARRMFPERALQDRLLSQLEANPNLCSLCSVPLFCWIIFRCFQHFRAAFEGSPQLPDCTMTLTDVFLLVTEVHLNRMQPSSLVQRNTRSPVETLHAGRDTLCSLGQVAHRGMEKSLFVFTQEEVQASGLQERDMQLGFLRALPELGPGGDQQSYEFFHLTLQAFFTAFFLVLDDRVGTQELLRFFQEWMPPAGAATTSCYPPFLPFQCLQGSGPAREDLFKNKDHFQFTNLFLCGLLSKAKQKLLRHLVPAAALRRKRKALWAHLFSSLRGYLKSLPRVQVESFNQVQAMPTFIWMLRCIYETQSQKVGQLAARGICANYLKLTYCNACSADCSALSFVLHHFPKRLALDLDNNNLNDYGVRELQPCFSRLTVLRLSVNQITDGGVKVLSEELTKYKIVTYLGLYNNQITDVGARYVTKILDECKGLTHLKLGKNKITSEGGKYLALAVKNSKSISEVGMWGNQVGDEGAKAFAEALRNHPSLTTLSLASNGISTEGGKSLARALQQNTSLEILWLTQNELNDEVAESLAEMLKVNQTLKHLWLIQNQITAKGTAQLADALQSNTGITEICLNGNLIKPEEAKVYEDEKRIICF
Nature of the data set: Agonist activity at human NOD1 expressed in HEK-Blue cells assessed as induction of NF-kB transcriptional activity at 20 uM after 18 hrs by SEAP reporter gene assay. The data set is classed as cell-based.

Data set [5] in a line: Stability in HEK293 cells at 2 uM up to 18 hrs by LC-MS analysis. The following applies: human, hek293, 18 h. The data set is classed as ADME, cell-based.
Data set [6] concerns the target T1, Nucleotide-binding oligomerization domain-containing protein 2. Nature of the data set: Agonist activity at human NOD2 expressed in HEK-Blue cells assessed as induction of NF-kB transcriptional activity at 20 uM after 18 hrs by SEAP reporter gene assay. Type of data set: cell-based.
A short description of data set [7]: Drug level in HEK293 cells cytosol at 2 uM after 18 hrs by LC-MS analysis. The data set is classed as ADME, cell-based. The following applies: human.
Data set [8] concerns the target T1, Nucleotide-binding oligomerization domain-containing protein 2. The experiment in a line: Agonist activity at human NOD2 expressed in HEK-Blue cells assessed as induction of NF-kB transcriptional activity at 2 uM after 18 hrs in presence of NOD2 antagonist GSK-669 by SEAP reporter gene assay. The data set is classed as cell-based.
Data set [9] can be described thus: Drug metabolism in HEK293 cells assessed as retention time at 2 uM by LC-MS analysis. Type of data set: ADME, cell-based. As to conditions: human, hek293, 2 µM.
In data set [10] the test system is PBMC. The experiment in a line: Immunostimulatory activity in human PBMC assessed as increase in IFNgamma release at 2 uM after 18 hrs in presence of LPS by flow cytometry. Type of data set: functional, cell-based.
The test system of data set [11] is PBMC. Nature of the data set: Immunostimulatory activity in human PBMC assessed as increase in IL-10 release at 2 uM after 18 hrs in presence of LPS by flow cytometry relative to control. Type of data set: functional.
The test system of data set [12] is Mus musculus. Nature of the data set: Immunoadjuvant activity in ovalbumin-induced NIH/OlaHsd mouse model of adjuvancy assessed as induction of ovalbumin-specific humoral immune response by measuring increase in anti-OVA IgG level in serum at 200 ug, sc using liposome encapsulated compound measured on day 7 post second booster by ELISA. Type of data set: functional, organism-based.

Data set [13] concerns PBMC. Nature of the data set: Immunostimulatory activity in human PBMC assessed as increase in TNF-alpha release at 2 uM after 18 hrs by flow cytometry. Type of data set: functional, cell-based.
The nature of data set [14]: Pyrogenic activity in Atlantic horseshoe crab blood limulus amebocyte lysate by bacterial endotoxin test. The data set is classed as ADME. As to conditions: limulus polyphemus.
Data set [15] relates to PBMC. The experiment in a line: Immunostimulatory activity in human PBMC assessed as increase in IL-6 release at 2 uM after 18 hrs in presence of LPS by flow cytometry relative to control. Type of data set: functional.
The subject of data set [16] is PBMC. The experiment in a line: Immunostimulatory activity in human PBMC assessed as increase in IL-4 release at 2 uM after 18 hrs in presence of LPS by flow cytometry. Type of data set: functional, cell-based.
The test system of data set [17] is PBMC. The experiment in a line: Immunostimulatory activity in human PBMC assessed as increase in IL-10 release at 2 uM after 18 hrs by flow cytometry. Type of data set: functional, cell-based.
Data set [18] has as its system PBMC. Nature of the data set: Immunostimulatory activity in human PBMC assessed as increase in TNF-alpha release at 2 uM after 18 hrs in presence of LPS by flow cytometry relative to control. Type of data set: functional.
In data set [19] the test system is PBMC. The experiment in a line: Immunostimulatory activity in human PBMC assessed as increase in IL-6 release at 2 uM after 18 hrs by flow cytometry. Type of data set: functional, cell-based.
Data set [20] has as its system PBMC. The experiment in a line: Immunostimulatory activity in human PBMC assessed as increase in IL-17A release at 2 uM after 18 hrs in presence of LPS by flow cytometry. Type of data set: functional, cell-based.
Data set [21] relates to PBMC. The experiment in a line: Immunostimulatory activity in human PBMC assessed as increase in IL-2 release at 2 uM after 18 hrs in presence of LPS by flow cytometry. Type of data set: functional, cell-based.
The nature of data set [22]: Drug uptake in HEK293 cells cytosol at 2 uM after 18 hrs by LC-MS analysis. The data set is classed as ADME, cell-based. The following applies: human.
Data set [23] has as its system Mus musculus. The experiment in a line: Immunoadjuvant activity in ovalbumin-induced NIH/OlaHsd mouse model of adjuvancy assessed as modulation of Th1/Th2-bias of induced immune response by measuring ratio of anti-OVA IgG1 to anti-OVA IgG2a level in serum at 200 ug, sc using liposome encapsulated compound measured on day 7 post second booster by ELISA (reference value: 1.69 +/- 0.28). The data set is classed as functional.

T1 sequence (Q9HC29 whole entry, the tested form may be a part): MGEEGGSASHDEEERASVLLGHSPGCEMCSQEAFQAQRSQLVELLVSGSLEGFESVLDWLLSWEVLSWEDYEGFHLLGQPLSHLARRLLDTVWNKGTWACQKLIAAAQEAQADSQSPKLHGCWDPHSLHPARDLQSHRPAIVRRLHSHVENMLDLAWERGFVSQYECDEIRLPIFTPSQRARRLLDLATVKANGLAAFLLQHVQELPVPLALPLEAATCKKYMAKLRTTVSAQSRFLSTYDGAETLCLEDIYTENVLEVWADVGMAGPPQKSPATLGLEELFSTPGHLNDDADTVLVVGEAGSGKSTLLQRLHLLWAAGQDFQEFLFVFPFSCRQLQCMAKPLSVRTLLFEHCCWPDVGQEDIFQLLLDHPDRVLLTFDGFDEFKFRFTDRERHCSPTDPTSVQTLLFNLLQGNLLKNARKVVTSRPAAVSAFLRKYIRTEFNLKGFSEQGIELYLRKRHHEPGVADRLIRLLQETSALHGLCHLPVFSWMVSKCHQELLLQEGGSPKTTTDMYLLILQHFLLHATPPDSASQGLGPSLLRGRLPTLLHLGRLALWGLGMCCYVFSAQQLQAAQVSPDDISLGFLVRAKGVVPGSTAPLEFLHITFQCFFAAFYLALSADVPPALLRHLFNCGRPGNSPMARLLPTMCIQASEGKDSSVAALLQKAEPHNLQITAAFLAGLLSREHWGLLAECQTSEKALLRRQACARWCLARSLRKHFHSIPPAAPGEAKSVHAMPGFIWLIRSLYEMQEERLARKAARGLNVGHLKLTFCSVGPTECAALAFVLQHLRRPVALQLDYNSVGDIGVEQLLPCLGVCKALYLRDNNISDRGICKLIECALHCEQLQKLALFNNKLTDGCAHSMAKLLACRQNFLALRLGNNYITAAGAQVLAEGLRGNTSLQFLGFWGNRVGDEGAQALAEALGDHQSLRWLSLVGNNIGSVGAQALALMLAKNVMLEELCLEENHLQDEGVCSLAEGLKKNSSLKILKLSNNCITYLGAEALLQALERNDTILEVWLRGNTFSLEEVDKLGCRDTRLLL

On to `COc1cc(/C=C/C(=O)NCC(=O)N[C@H](C(=O)N[C@H](CCC(=O)O)C(=O)O)C(C)C)ccc1O`, for which the viability at 18 h, 20 µM in data set [1] was more than 80%. Moreover, in [2], the fold change (FC) stood at 2.7. Besides, in [3], the EC50 was 6.98 µM. Besides, the outcome in [4] and in [8] was inactive. For the same compound, the Stability entry in [5] is listed as “Stable”. For the same compound, in data set [6], the result was Active. The compound further returned a Drug uptake in [7] of 0.4 µM. Also, the Retention_time in data set [9] was found to be 2.88 min.

Consider `CCOC(=O)CC[C@@H](NC(=O)[C@@H](NC(=O)CNC(=O)/C=C/c1ccc(O)c(OC)c1)C(C)C)C(=O)OCC`, for which the viability at 18 h, 20 µM in [1] is more than 80%. The result in the data set with PBMC [10], in the data set on Mus musculus [12], with PBMC [13], in the data set on PBMC [16], with PBMC [17] and with PBMC [19] was Active. Moreover, the outcome in the data set on PBMC [20] and with PBMC [21] was Active. The “fold change (FC)” value in the data set on PBMC [11] was found to be 5; with PBMC [15], 4; in the data set with PBMC [18], 3. The Activity entry in data set [14] was “Non-Toxic”. In data set [4], the result was inactive. Further, the Stability result in data set [5] is given as “Stable”. The Drug uptake in data set [7] turned out to be 0.13 µM; in data set [22], 40%. Further, the Retention_time in data set [9] is listed as 3.53 min.

With `CC(=O)N[C@H]1C(O)O[C@H](CO)[C@@H](O)[C@@H]1O[C@H](C)C(=O)N[C@@H](C)C(=O)N[C@H](CCC(=O)O)C(N)=O` (stereo partly specified) [MURAMYL DIPEPTIDE], the viability at 18 h, 20 µM in [1] was more than 80%. For the same compound, the outcome in the data set with PBMC [10], in the data set on Mus musculus [12], with PBMC [13], in the data set with PBMC [16], with PBMC [17] and with PBMC [19] was Active. The result in the data set with PBMC [20] and with PBMC [21] was Active. Moreover, the “fold change (FC)” value came out at 5 with PBMC [11], 5.6 in data set [2], 4 in the data set on PBMC [15] and 3.6 in the data set with PBMC [18]. In the data set on Mus musculus [23], the Ratio was 133. For the same compound, the “log(ratio)” value in the data set on Mus musculus [23] turned out to be 2.37. In [3], the Activity entry is “Dose-dependent effect”. In data set [3], the EC50 worked out at 0.092 µM. The result in data set [4] and in data set [8] was inactive.
